Assay results: PubChem BioAssay AID330 (DTP/NCI, 2004)
Several values for one entry are separate records, joined by “and”; a condition that tells them apart may be missing. Equal entries are not always repeated. Toxic doses and inconclusive results are not listed. The calls were made as follows: active = survival T/C of 150% or more; inactive = T/C below 125% in these data.

System: P388 leukemia ip, CD2F1 mice, survival T/C
Assay: NCI In Vivo Anticancer Drug Screen. Data for tumor model P388 Leukemia (intraperitoneal) in CD2F1 (CDF1) mice
Conditions: endpoint: median survival time, higher = longer survival
In short: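 Mice carrying the transplanted tumor received test compound or vehicle. Survival was recorded in each group, and the value is the treated-group measurement divided by that of the vehicle-treated control group.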

[1] = dose: 60.0 mg/kg/injection, schedule: Q01DX005 (ip), vehicle: saline with Tween-80
[2] = dose: 120.0 mg/kg/injection, schedule: Q01DX005 (ip), vehicle: saline with Tween-80
[3] = dose: 100.0 mg/kg/injection, schedule: Q04DX003 (ip), vehicle: saline with Tween-80
[4] = dose: 100.0 mg/kg/injection, schedule: Q04DX003 (ip), vehicle: saline
[5] = dose: 200.0 mg/kg/injection, schedule: Q04DX003 (ip), vehicle: saline with Tween-80
[6] = dose: 200.0 mg/kg/injection, schedule: Q04DX003 (ip), vehicle: saline
[7] = dose: 25.0 mg/kg/injection, schedule: Q01DX005 (ip), vehicle: Klucel (hydroxypropylcellulose) (HPC)
[8] = dose: 50.0 mg/kg/injection, schedule: Q01DX005 (ip), vehicle: Klucel (hydroxypropylcellulose) (HPC)
[9] = dose: 50.0 mg/kg/injection, schedule: Q01DX005 (ip), vehicle: saline with Tween-80
[10] = dose: 100.0 mg/kg/injection, schedule: Q01DX005 (ip), vehicle: saline with Tween-80
[11] = dose: 60.0 mg/kg/injection, schedule: Q01DX005 (ip), vehicle: Klucel (hydroxypropylcellulose) (HPC)
[12] = dose: 120.0 mg/kg/injection, schedule: Q01DX005 (ip), vehicle: Klucel (hydroxypropylcellulose) (HPC)
[13] = dose: 25.0 mg/kg/injection, schedule: Q01DX009 (ip), vehicle: saline with Tween-80
[14] = dose: 50.0 mg/kg/injection, schedule: Q01DX009 (ip), vehicle: Klucel (hydroxypropylcellulose) (HPC)
[15] = dose: 100.0 mg/kg/injection, schedule: Q01DX009 (ip), vehicle: Klucel (hydroxypropylcellulose) (HPC)
[16] = dose: 200.0 mg/kg/injection, schedule: Q01DX009 (ip), vehicle: Klucel (hydroxypropylcellulose) (HPC)
[17] = dose: 200.0 mg/kg/injection, schedule: Q01DX005 (ip), vehicle: saline with Tween-80
[18] = dose: 240.0 mg/kg/injection, schedule: Q01DX005 (ip), vehicle: Klucel (hydroxypropylcellulose) (HPC)
[19] = dose: 100.0 mg/kg/injection, schedule: Q01DX005 (ip), vehicle: Klucel (hydroxypropylcellulose) (HPC)
[20] = dose: 200.0 mg/kg/injection, schedule: Q01DX005 (ip), vehicle: Klucel (hydroxypropylcellulose) (HPC)
[21] = dose: 12.5 mg/kg/injection, schedule: Q01DX009 (ip), vehicle: saline
[22] = dose: 25.0 mg/kg/injection, schedule: Q01DX009 (ip), vehicle: saline
[23] = dose: 50.0 mg/kg/injection, schedule: Q01DX009 (ip), vehicle: saline

Measured: T/C

O=C1c2ccccc2C(=O)N1C1CC(=O)n2c1nc1ccccc12 (stereo unspecified)
inactive: [1] 101 % of control | [2] 95 % of control | dose: 240.0 mg/kg/injection, schedule: Q01DX005 (ip), vehicle: saline with Tween-80 95 % of control

O=C(O)c1ccc(=O)[nH]c1
inactive: dose: 100.0 mg/kg/injection, schedule: Q01DX009 (ip), vehicle: saline 101 % of control and 107 % of control | dose: 200.0 mg/kg/injection, schedule: Q01DX009 (ip), vehicle: saline 110 % of control and 118 % of control | dose: 400.0 mg/kg/injection, schedule: Q01DX009 (ip), vehicle: saline 100 % of control and 109 % of control | dose: 600.0 mg/kg/injection, schedule: Q01DX009 (ip), vehicle: saline 104 % of control and 106 % of control

CC1CCCC/C1=N\N(C)C (stereo unspecified)
inactive: [1] 100 % of control | [2] 94 % of control

C/C(=N\NC(=S)N1CCN(C2CCCCCC2)CC1)c1ccccn1
inactive: dose: 1.57 mg/kg/injection, schedule: Q01DX005 (ip), vehicle: saline with Tween-80 96 % of control | dose: 3.13 mg/kg/injection, schedule: Q01DX005 (ip), vehicle: saline with Tween-80 100 % of control | dose: 6.25 mg/kg/injection, schedule: Q01DX005 (ip), vehicle: saline with Tween-80 114 % of control and 120 % of control

Cc1ccc(N2CCN(CCCC3(c4ccccc4)OCCO3)CC2C)cc1Cl (stereo unspecified)
inactive: dose: 50.0 mg/kg/injection, schedule: Q04DX003 (ip), vehicle: saline 106 % of control and 97 % of control | [3] 107 % of control | [4] 100 % of control and 95 % of control | [5] 117 % of control | [6] 107 % of control and 97 % of control | dose: 400.0 mg/kg/injection, schedule: Q04DX003 (ip), vehicle: saline 107 % of control and 97 % of control

N#CC1C2C1C1C=CC2n2c(=O)n(-c3ccccc3)c(=O)n21 (stereo unspecified)
inactive: dose: 6.25 mg/kg/injection, schedule: Q01DX005 (ip), vehicle: Klucel (hydroxypropylcellulose) (HPC) 99 % of control | dose: 12.5 mg/kg/injection, schedule: Q01DX005 (ip), vehicle: Klucel (hydroxypropylcellulose) (HPC) 102 % of control | [7] 108 % of control and 98 % of control | [8] 99 % of control and 111 % of control

CCN(CC)CCC(=O)c1cccc2ccccc12
inactive: dose: 25.0 mg/kg/injection, schedule: Q01DX005 (ip), vehicle: saline with Tween-80 100 % of control | [9] 106 % of control | [10] 102 % of control

NP(N)(=O)NC(=O)c1ccc(F)cc1
inactive: [9] 100 % of control | [10] 100 % of control

C/C(=N\N1CN(C(C)C(=O)O)P(N(CCO)CCO)N=C1N)c1cccs1 (stereo unspecified)
inactive: dose: 7.5 mg/kg/injection, schedule: Q01DX005 (ip), vehicle: saline 98 % of control | dose: 15.0 mg/kg/injection, schedule: Q01DX005 (ip), vehicle: saline 101 % of control | dose: 30.0 mg/kg/injection, schedule: Q01DX005 (ip), vehicle: saline 98 % of control

CCC(=O)c1cc(-c2cc(C(=O)CC)[nH]n2)n[nH]1
inactive: [11] 98 % of control | [12] 98 % of control

CN1CCC(=C(C#N)C#N)CC1
inactive: [13] 120 % of control | dose: 50.0 mg/kg/injection, schedule: Q01DX009 (ip), vehicle: saline with Tween-80 115 % of control

Cc1ccc(S(=O)(=O)C[n+]2ccc3ccccc3c2)cc1
inactive: [3] 98 % of control | [4] 114 % of control and 118 % of control | [5] 105 % of control | [6] 117 % of control | dose: 400.0 mg/kg/injection, schedule: Q04DX003 (ip), vehicle: saline with Tween-80 100 % of control

CCCN(CCC)CCSC(=S)NCCOC
inactive: [3] 100 % of control | [5] 100 % of control

COc1nc2[nH]c(C)cc(=O)c2c2ccccc12
inactive: [1] 98 % of control | [2] 98 % of control

CC(/C=C/c1ccccc1)=N\Nc1ccc(Cl)c(Cl)c1
inactive: [14] 102 % of control | [15] 102 % of control | [16] 100 % of control

COc1ccc(S(=O)(=O)N/N=C/c2cc([N+](=O)[O-])cc(I)c2O)cc1
inactive: [9] 101 % of control | [10] 100 % of control | [17] 117 % of control

CCCCCCC1C/C(=C/N(C)C)C(=O)O1 (stereo unspecified)
inactive: [11] 92 % of control | [12] 104 % of control | [18] 92 % of control

CC1(C)CC(=O)C2=C(C1)CC1(C)CC(C)(C)CC2(OC(=O)Cc2ccccc2)C1 (stereo unspecified)
inactive: [8] 98 % of control | [19] 95 % of control | [20] 92 % of control

CCC(c1ccc(OC)cc1)C(NC(=S)Nc1ccc(Cl)cc1)c1ccc(OC)cc1 (stereo unspecified)
inactive: dose: 100.0 mg/kg/injection, schedule: Q01DX001 (ip), vehicle: saline with Tween-80 90 % of control | dose: 200.0 mg/kg/injection, schedule: Q01DX001 (ip), vehicle: saline with Tween-80 90 % of control | dose: 400.0 mg/kg/injection, schedule: Q01DX001 (ip), vehicle: saline with Tween-80 109 % of control

CCSc1ccc2c3c(cccc13)C(=O)N(CCc1ccccn1)C2=O
inactive: [14] 98 % of control | [15] 99 % of control | [16] 92 % of control

ClC1=C(Cl)C2(Cl)C=CC1(Cl)C2
inactive: [9] 106 % of control | [10] 106 % of control | [17] 108 % of control

O=[N+]([O-])c1ccccc1SSc1ccccc1[N+](=O)[O-]
inactive: dose: 100.0 mg/kg/injection, schedule: Q01DX009 (ip), vehicle: saline with Tween-80 95 % of control | dose: 200.0 mg/kg/injection, schedule: Q01DX009 (ip), vehicle: saline with Tween-80 104 % of control | dose: 400.0 mg/kg/injection, schedule: Q01DX009 (ip), vehicle: saline with Tween-80 100 % of control

CCCCCCCCCCCCCCC[N+]1([O-])CCCCC1
inactive: [21] 101 % of control | [22] 95 % of control | [23] 99 % of control and 101 % of control

COc1cc2cc(-c3ccc(Cl)c(Cl)c3)[n+](C)cc2cc1OC
inactive: [21] 106 % of control | [22] 94 % of control | [23] 98 % of control

CCCCNC(=O)C1CC2c3cccc4c3c(cn4C)CC2N(C)C1 (stereo unspecified)
inactive: dose: 25.0 mg/kg/injection, schedule: Q01DX001 (ip), vehicle: saline 102 % of control | dose: 50.0 mg/kg/injection, schedule: Q01DX001 (ip), vehicle: saline 105 % of control

CCOc1cc2c(cc1C(CC)c1ccccc1)OCO2 (stereo unspecified)
inactive: [8] 99 % of control | [19] 96 % of control | [20] 95 % of control

CC(=O)Oc1ccc(N2C(=O)C3C(C2=O)C2c4ccccc4C3C3CCCCN32)cc1 (stereo unspecified) (tested in a mixture with another compound)
inactive: dose: 6.25 mg/kg/injection, schedule: Q01DX009 (ip), vehicle: water 101 % of control | dose: 12.5 mg/kg/injection, schedule: Q01DX009 (ip), vehicle: water 111 % of control | dose: 25.0 mg/kg/injection, schedule: Q01DX009 (ip), vehicle: water 104 % of control | dose: 50.0 mg/kg/injection, schedule: Q01DX009 (ip), vehicle: water 102 % of control | dose: 100.0 mg/kg/injection, schedule: Q01DX009 (ip), vehicle: water 104 % of control

S=P1(Oc2ccccc2)Nc2cccc3cccc(c23)N1
inactive: [7] 98 % of control | [8] 106 % of control | [19] 102 % of control | [20] 103 % of control

C/[N+]([O-])=C/c1ccccc1
inactive: dose: 100.0 mg/kg/injection, schedule: Q04DX003 (ip), vehicle: Klucel (hydroxypropylcellulose) (HPC) 104 % of control | dose: 200.0 mg/kg/injection, schedule: Q04DX003 (ip), vehicle: Klucel (hydroxypropylcellulose) (HPC) 106 % of control | dose: 400.0 mg/kg/injection, schedule: Q04DX003 (ip), vehicle: Klucel (hydroxypropylcellulose) (HPC) 108 % of control

NC(CS(=O)c1ccc(Cl)cc1)C(=O)O (stereo unspecified)
inactive: dose: 6.25 mg/kg/injection, schedule: Q01DX009 (ip), vehicle: saline with Tween-80 95 % of control | dose: 12.5 mg/kg/injection, schedule: Q01DX009 (ip), vehicle: saline with Tween-80 95 % of control | [13] 100 % of control

COc1cccc(C2c3cc4c(cc3OC(C)(O)C2C)OCO4)c1O (stereo unspecified)
inactive: [11] 96 % of control | [12] 98 % of control | [18] 93 % of control
